{"source": "patent US20220054398A1", "about": "“USE OF RUBUS FRUTICOSUS EXTRACT FOR MANUFACTURING A SKINCARE COMPOSITION” (TCI CO., LTD., priority 2020, published 2022)", "system": "Mouse melanoma cell B16F10", "experiment": "Melanin production after blue light exposure, OD450", "format": "cell-based", "conditions": "B16F10 cells, 0.25 mg/mL 24 hours, blue light 3 hours, then 48 hours", "protocol": "The changes in melanin content of melanoma cell line B16F10 after being treated with Rubus fruticosus extract are determined by an ELISA reader (enzyme-linked immunosorbent assay reader). Materials and Instruments: • 1. Cell line: Mouse melanoma cell B16F10, purchased from American Type Culture Collection (ATCC®, No. 6475), hereinafter referred to as B16F10 cells. • 2. Medium: Dulbecco's modified […] (DMEM, purchased from Gibco, Cat. 12100-038) is supplemented with additional ingredients to contain 1 vol % antibiotic solution (Antibiotic Antimycotic Solution, purchased from Gibco, 15240-062) and 10 vol % FBS (fetal bovine Serum, purchased from Gibco, 10437-028). Gibco, 15240-062). • 3. Phosphate Buffer Solution (PBS solution): purchased from Gibco, Product No. […]. • 4. Prepare a solution of 1N NaOH (Sigma, Product No. 221465) in secondary distilled water. • 5. ELISA reader (purchased from BioTek, product number FLx 800). • 6. […] Transfer 100 μL of the sample to be tested into a 96-well plate and measure the absorbance value of the cell solution at 450 nm using an ELISA reader. The relative melanin expressions of the experimental and control groups are calculated according to the following formula: Relative melanin expression (%)=(OD 450 value of each group/OD450 value of the control group)×100%.", "data": [{"smiles": "O=c1cc(CO)occ1O", "note": "[kojic acid, Kojic acid]", "values": [{"measurement": "melanin production compared with the control group", "value": 67.42, "unit": "%"}]}]}
